Experimental data as given in patent US20140127235A1, “TARGETING HK alpha FOR CONTROLLING BLOOD PRESSURE AND REGULATING ELECTROLYTE BALANCE” (UNIVERSITY OF FLORIDA RESEARCH FOUNDATION, INC., priority 2011, published 2014).

How the values were obtained:
Type in all cases: in vivo, mouse
HKα2 mRNA = test: Real time PCR of renal HKα2 mRNA expression in DOCP-treated mice
Source text: The principal mechanism of mineralocorticoid action is through modulation of target gene transcription.^15 Therefore, the next experiments evaluated the effect of DOCP on renal HKα1 and HKα2 mRNA expression. Real time quantitative PCR was used to investigate changes in steady state mRNA levels of H^+,K^+-ATPase α subunits, HKα1 and HKα2, in cortex, outer medulla, and inner medulla of control and DOCP-treated mice.
Deficits in K^+ homeostasis have long been known to stimulate H^+,K^+-ATPase activity and HKα subunit expression. Therefore, the next experiments investigated whether the decreases in blood [K^+] observed in DOCP-treated mice were responsible for the stimulation of HKα2 mRNA expression. For this experiment, mice were fed a high K^+ diet and then left untreated (control) or given DOCP treatment. Body weight and blood electrolytes were measured eight days after treatment and kidneys were collected for analysis of HKα, and HKα2 mRNA expression by real time PCR. A high K^+ diet abrogated the effect of DOCP on body weight gain, blood [K^+], [Cl^−], and [HCO3^−] in mice (Table 3). Similarly, the stimulation of HKα, or HKα2 mRNA expression with DOCP was absent in mice fed a high K^+ diet (FIGS. 3C and 3D).
RNA was recovered from cortex, medulla, and inner medulla with TRIzol reagent (Invitrogen). RNA was treated with DNase 1 (Ambion DNA Free) and converted to cDNA using SuperScript III (Invitrogen). For real time quantitative PCR, 20 ng cDNA was used to quantify mRNA expression with TaqMan Gene Expression (Applied Biosystems) primer/probe sets for HKα1 (Atp4a, Mm00444423_m1), HKα2 (Atp12a, Mm0131809_m1), and β-actin (Actb, Mm00607939_s1). Cycle threshold (Ct) values were normalized to β-actin, and relative expression (control set to 100%) was calculated by the ΔΔCt method.^28

[1] = Effect of high K+ (5%) diet on physiological response of wild type mice to DOCP treatment; conditions: eight days after DOCP
Protocol: Deficits in K^+ homeostasis have long been known to stimulate H^+,K^+-ATPase activity and HKα subunit expression. […] For this experiment, mice were fed a high K^+ diet and then left untreated (control) or given DOCP treatment. Body weight and blood electrolytes were measured eight days after treatment and kidneys were collected for analysis of HKα, and HKα2 mRNA expression by real time PCR.
(§1) Mice were fed normal lab chow, given free access to water, and given an i.m. injection of 1.7 mg DOCP (Percorten V, Novartis Pharmaceuticals). For perfusion and expression studies, mice were sacrificed with Na^+ pentobarbital (i.p. 120 mg/kg) followed by cervical dislocation. For time course experiments, another group of animals were anesthetized with 3-4% isoflurane and aortic blood was collected into a heparinized syringe for immediate analysis of electrolytes and blood gases (Nova pHOx Plus analyzer, Nova Biomedical). For high K^+ diet studies, mice were given a normal, powdered diet (TD99131, Teklad) supplemented with KCl to equal 5% K^+ which was then made as a gel. Half of the mice were treated with DOCP. Blood and tissues were collected as in the time course experiments. For urinalysis experiments, mice were housed in metabolic cages for thirteen days and fed a normal gel diet with free access to a water bottle. On day five, mice were treated with DOCP as above. Urine and feces were collected daily. Urine electrolytes were measured on a clinical analyzer (Nova 16 analyzer, Nova Biomedical) and fecal electrolytes were measured on a digital flame photometer (Model 2655-00, Cole-Parmer).

[2] = DOCP treatment of wild type, HKα1−/− and HKα1,2−/− mice: body weight, blood electrolytes, urinary and fecal electrolyte excretion
Source text: In a separate study, the effect of DOCP treatment of body weight change, blood electrolytes, and urinary and fecal electrolyte excretion was examined in wild type, HKα1^−/−, and HKα1,2^−/− mice on a normal diet.
In the context of whole animal physiology, it is important to examine the overall electrolyte balance as the […] of urinary and fecal excretion subtracted from the intake of that electrolyte.
as §1

[3] = Survival of DOCP-treated WT and HKα1,2−/− mice over 60 days; conditions: two injections of DOCP on day zero and day 57
Source text: These animals all received two injections of DOCP on day zero and day 57. Four of the HKα1,2^−/− mice died at day's nine 46, 47, and 59 for an overall survival at 60 days of 57% for the HKα1,2^−/− mice whereas there were no deaths in the nine WT animals X^2 (log-rank): 4.554 (P<0.05).

## CC(C)(C)C(=O)OCC(=O)[C@H]1CC[C@H]2[C@@H]3CCC4=CC(=O)CC[C@]4(C)[C@H]3CC[C@]12C [DOCP, desoxycorticosterone pivalate]
HKα2 mRNA; cortex, eight days after DOCP, normal diet
  HKα2 mRNA expression: did not affect
HKα2 mRNA; inner medulla, eight days after DOCP, normal diet
  HKα2 mRNA levels, increase: as much as five-fold
HKα2 mRNA; mice fed a high K+ diet
  stimulation of HKα1 or HKα2 mRNA expression with DOCP: absent
HKα2 mRNA; outer medulla, eight days after DOCP, normal diet
  HKα2 mRNA levels, increase: more than two-fold
[1]
  Blood [Cl−]: 121 ± 1.30 mM
  Blood [HCO3−]: 18.2 ± 1.01 mM
  Blood [K+]: 4.30 ± 0.18 mM
  Blood [Na+]: 151 ± 0.88 mM
  Body weight change: -0.17 ± 0.27 g
[2]; HKα1,2−/− mice, day eight
  effect of DOCP to decrease blood [Cl−] and increase blood [HCO3−]: eliminated
[2]; HKα1,2−/− mice, day eight, overall balance
  K+ retention, less than wild type mice with DOCP treatment: ~40%
[2]; HKα1,2−/− mice, eighth day of DOCP treatment
  Overall Na+ retention versus wild type or HKα1−/− mice: significantly less
[2]; HKα1−/− and HKα1,2−/− mice, versus control period
  increase of fecal K+ loss with DOCP treatment: ~50%
[2]; HKα1−/− mice
  Urine volume by the end of DOCP treatment: considerably decreased
[2]; HKα1−/− mice, day eight, normal diet
  DOCP-induced body weight gain relative to wild type: augmented nearly two-fold
[2]; HKα1−/− mice, pair fed
  dry stool weight, more than wild type or HKα1,2−/− mice when treated with DOCP: 50%
[2]; wild type and HKα1,2−/− mice
  Urine volume by the end of DOCP treatment: doubled
[2]; wild type mice
  overall Na+ balance with DOCP treatment: increased
[3]; HKα1,2−/− mice (seven)
  overall survival at 60 days: 57%
[3]; nine WT mice
  deaths over 60 days: no deaths
